Measured values published in patent publication US11213538B2, “Agent for overcoming immunosuppression and use thereof” (GENERAL INCORPORATED ASSOCIATION PHARMA VALLEY PROJECT …, priority 2016, dated 2022).

Legend:
HEK293/NF-κB-RE cells = experiment: NF-κB luciferase reporter in HEK293/NF-κB-RE cells without FOXP3, with TNF-alpha; type: cell-based, human; conditions: epirubicin 0.003-1 μM, TNF-alpha 0.3 ng/mL, FIG. 1(B)
Source text: Herein, the activity of inhibiting FOXP3 function can be evaluated by preparing HEK293 cells (HEK293/NF-κB-RE cells) into which a luciferase reporter vector has been stably introduced and cells (HEK293/NF-κB-RE/FOXP3 cells) obtained by stably introducing the FOXP3 gene into the HEK293/NF-κB-RE cells, adding a test drug and TNF-alpha (TNF-α) thereto, followed by culture, and measuring a difference in chemiluminescence intensity in each cell group.
Into a human embryonic kidney-derived cell line HEK293 (RIKEN CELL BANK), pGL4.32 [luc2P/NF-κB-RE/Hygro] (Promega Corporation), which is a luciferase reporter vector, was introduced, and the cells were subjected to a selection through culture in a medium containing 0.2 mg/mL Hygromycin B for 3 weeks. The obtained single clone was isolated and established as a stable line. For culture, DMEM (Dulbecco's Modified Eagle's Medium) containing 10% heat inactivated FBS and 0.2 mg/mL Hygromycin B was used.
A cell suspension of 1.875×10^5 cells/mL was prepared for HEK293/NF-κB-RE/FOXP3 cells and HEK293/NF-κB-RE cells, respectively, using DMEM with 10% heat inactivated FBS and without phenol red (medium for assay). […]
The culture supernatant was removed, and the cells were washed once with 100 μL of the medium for assay. […] After shaking, the chemiluminescence intensity was measured by ARVO Light plate reader (Perkin Elmer). […]

[1] = tested on: CD4+FOXP3+ and CD4+FOXP3− tumor-infiltrating lymphocytes; experiment: IFN-γ positive cells among tumor-infiltrating lymphocytes of CMS5a tumor-bearing mice; type: in vivo, BALB/c mice; conditions: epirubicin 0.1, 0.3, 1 mg/kg intravenously on days 3, 5, 7, TIL collected day 8
Protocol: CMS5a cells were transplanted under the skin in the posterodorsal region of female BALB/c mice (8 mice per group) on day 0. […] On day 8, the mice were euthanized and tumors were collected. Using gentle MACS dissociator (manufactured by Miltenyi Biotec) in accordance with the instruction manual, tumor-infiltrating lymphocytes (TIL) were separated from the tumors. The collected cells were seeded into a 24 well plate and stimulated with phorbol 12-myristate 13-acetate (PMA) and ionomycin under the condition of 37° C. for an hour, and then cultured with GolgiPlug (BD Biosciences) for 6 hours. After collecting the cells, the cells were stained with PreCP-CyTM5.5 rat anti-mouse CD4 antibody (manufactured by BD Pharmingen) and V500 rat anti-mouse CD8a antibody (manufactured by BD Horizon) under the condition of 4° C. for 15 minutes. The stained cells were fixed with Fixation/Permeabilization Concentrate and Diluent (1:3, manufactured by eBioscience) under the condition of 4° C. overnight. […] The stained cells were analyzed using FACS Canto II flow cytometer (manufactured by Becton Dickinson).

mouse regulatory T cells = experiment: Overcoming immunosuppressive action of mouse regulatory T cells: growth of CFSE-stained CD8+ T cells co-cultured with epirubicin-treated CD4+CD25+ T lymphocytes; type: cell-based, BALB/c mice; conditions: in the presence of regulatory T cells treated with epirubicin at a low dose not showing cytotoxicity, FIG. 2
Protocol: Anti-CD3 antibody (1 μg/mL, manufactured by eBioscience) was added to a 12 well flat-bottom plate and the plate was left to stand at 4° C. overnight, and then washed with RPMI 1640 medium. Spleen was isolated from BALB/c mice, and CD4^+CD25^+ T lymphocytes were isolated using a mouse regulatory T cell isolation kit (manufactured by Miltenyi Biotec) and autoMACS separator (manufactured by Miltenyi Biotec). To the 12 well flat-bottom plate coated with anti-CD3 antibody, seven hundred thousand CD4^+CD25^+ T lymphocytes per well were added, and anti-CD28 antibody (manufactured by eBioscience) and IL-2 (NOVARTIS) were added so that the concentrations were 1 μg/mL and 60 IU/mL, respectively. Next, epirubicin was added at various concentrations and the lymphocytes were cultured in an incubator at 37° C. for 48 hours and then washed with a 10% FBS supplemented RPMI 1640 medium.
Anti-CD3 antibody (1 μg/mL, manufactured by eBioscience) was added to a 96 well flat-bottom plate and the plate was left to stand at 4° C. overnight, and then washed with RPMI 1640 medium. […] The lymphocytes were collected and washed with PBS containing 0.5% BSA, and then stained with anti-CD8-APC antibody (manufactured by eBioscience) and analyzed using FACS Canto II flow cytometer (manufactured by Becton Dickinson).

FOXP3 = target: T1, FOXP3 (Homo sapiens, UniProt Q9BZS1); experiment: FOXP3 function inhibitory activity, NF-κB luciferase reporter in HEK293/NF-κB-RE/FOXP3 cells with TNF-alpha; type: cell-based; conditions: for Chemiluminescence intensity ratio (HEK293/NF-κB-RE/FOXP3 cells / HEK293/NF-κB-RE cells): DMSO control = 1.0
T1 construct: expressed in transfected cells
T1 sequence (Q9BZS1 1-431): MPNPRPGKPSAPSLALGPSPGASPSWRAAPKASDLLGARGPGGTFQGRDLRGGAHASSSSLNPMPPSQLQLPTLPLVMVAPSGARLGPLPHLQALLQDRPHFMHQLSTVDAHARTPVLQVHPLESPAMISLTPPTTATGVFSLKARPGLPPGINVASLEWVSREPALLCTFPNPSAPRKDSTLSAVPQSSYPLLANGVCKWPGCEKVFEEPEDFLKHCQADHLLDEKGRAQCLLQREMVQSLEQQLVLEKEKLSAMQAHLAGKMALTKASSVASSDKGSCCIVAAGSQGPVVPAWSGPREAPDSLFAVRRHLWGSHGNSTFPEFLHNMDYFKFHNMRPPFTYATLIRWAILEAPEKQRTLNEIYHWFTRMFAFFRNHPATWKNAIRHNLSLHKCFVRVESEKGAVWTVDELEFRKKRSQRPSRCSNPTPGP
Protocol: Into HEK293/NF-κB-RE cells, pcDNA3.1-FOXP3 (Department of Cancer vaccine therapy/Immuno-gene therapy, Mie University Graduate School of Medicine), which is a FOXP3 gene expression vector, was introduced, and the cells were subjected to a selection through culture in a medium containing 0.5 mg/mL G418 for 3 weeks. The obtained single clone was isolated and established as a stable line. For culture, DMEM containing 10% heat inactivated […], 0.2 mg/mL Hygromycin B, and 0.5 mg/mL G418 was used.
A cell suspension of 1.875×10^5 cells/mL was prepared for HEK293/NF-κB-RE/FOXP3 cells and HEK293/NF-κB-RE cells, respectively, using DMEM with 10% heat inactivated FBS and without phenol red (medium for assay). The cell suspension was seeded into a 96 well white microplate (nunc) at 80 μL/well (1.5×10^4 cells/well) and the cells were cultured overnight under the conditions of 37° C. and 5% CO2.
A DMSO solution of a test drug with a concentration of 1000 times the final concentration was diluted 100 times with the medium for assay to prepare a test drug solution with a concentration of 10 times the final concentration (a 10 times concentration test drug solution). To each well into which the cell suspension was seeded, 10 μL of the 10 times concentration test drug solution was added and treatment was carried out under the conditions of 37° C. and 5% CO2 for an hour (10 μL of a 1% DMSO solution was added to the control at this time).
Recombinant Human TNF-alpha (R&D Systems) was made to 100 μg/mL with 0.1% BSA-containing PBS, and was further diluted with the medium for assay to prepare a 3 ng/mL TNF-alpha solution. To each well described above, 10 μL of the 3 ng/mL TNF-alpha solution was added, and stimulation was performed under the conditions of 37° C. and 5% CO2 for 2.5 hours (the final concentration of TNF-alpha: 0.3 ng/mL).
The culture supernatant was removed, and the cells were washed once with 100 μL of the medium for assay. After adding 100 μL of the medium for assay, 50 μL of Steady-Glo (Promega Corporation) was added. The microplate was shaken for 10 minutes on a plate shaker with the light blocked. After shaking, the chemiluminescence intensity was measured by ARVO Light plate reader (Perkin Elmer). It should be noted that each test was carried out three times. The results obtained by using HEK293/NF-κB-RE/FOXP3 cells are shown in FIG. 1(A) and the results obtained by using HEK293/NF-κB-RE cells are shown in FIG. 1(B).
The FOXP3 inhibitory activity was evaluated in the same method as that in Example 1 except that the test drug was changed to epirubicin, pirarubicin, daunorubicin, doxorubicin, or idarubicin. The final concentration of each test drug was 0.01, 0.03, 0.1, 0.3 or 1 μM (only epirubicin and doxorubicin were tested also at 1 μM, and idarubicin was tested only at 0.01 and 0.03 μM).
Furthermore, the chemiluminescence intensity ratio was calculated by the Formula 1 below. The test was carried out three times. Chemiluminescence intensity ratio=(chemiluminescence intensity measured when HEK293/NF-κB-RE/FOXP3 cells were used)/(chemiluminescence intensity measured when HEK293/NF-κB-RE cells were used) [Formula 1] 3. Results

[2] = test drug concentration 0.01 (μM)
[3] = test drug concentration 0.03 (μM)
[4] = test drug concentration 0.1 (μM)
[5] = test drug concentration 0.3 (μM)

SMILES	chemiluminescence intensity (HEK293/NF-κB-RE cells)	proportion of IFN-γ positive cells to CD4+FOXP3+ cells ([1]; FIG. 3(A))	proportion of IFN-γ positive cells to CD4+FOXP3− cells ([1]; FIG. 3(B))	growth rate of CD8+ T cells (mouse regulatory T cells)	FOXP3 inhibitory activity (Example 2, in words) (FOXP3; 0.01-1 μM, Table 2)	inhibition of FOXP3 function (conclusion of Example 1) (FOXP3; FOXP3 cells compared with cells without FOXP3)	chemiluminescence intensity compared to control (FOXP3; HEK293/NF-κB-RE/FOXP3 cells, 0.1 μM)	chemiluminescence intensity compared to control (FOXP3; HEK293/NF-κB-RE/FOXP3 cells, 0.3 or 1 μM)	chemiluminescence intensity (FOXP3; HEK293/NF-κB-RE/FOXP3 cells, epirubicin 0.003-1 μM, TNF-alpha 0.3 ng/mL, FIG. 1(A))	Chemiluminescence intensity ratio (HEK293/NF-κB-RE/FOXP3 cells / HEK293/NF-κB-RE cells) (FOXP3; [2])	Chemiluminescence intensity ratio (HEK293/NF-κB-RE/FOXP3 cells / HEK293/NF-κB-RE cells) (FOXP3; [3])	Chemiluminescence intensity ratio (HEK293/NF-κB-RE/FOXP3 cells / HEK293/NF-κB-RE cells) (FOXP3; [4])	Chemiluminescence intensity ratio (HEK293/NF-κB-RE/FOXP3 cells / HEK293/NF-κB-RE cells) (FOXP3; [5])	Chemiluminescence intensity ratio (HEK293/NF-κB-RE/FOXP3 cells / HEK293/NF-κB-RE cells) (FOXP3; test drug concentration 1 (μM))
COc1cccc2c1C(=O)c1c(O)c3c(c(O)c1C2=O)C[C@@](O)(C(=O)CO)C[C@@H]3O[C@H]1C[C@H](N)[C@@H](O)[C@H](C)O1 [Epirubicin, epirubicin]	concentration-dependent changes were not observed	increased in a concentration-dependent manner	did not vary	increased in a concentration-dependent manner	increased in a concentration-dependent manner	selectively inhibited FOXP3 function	significantly high as compared to that in the control at P<0.05	significantly high as compared to that in the control at P<0.01	increased in an epirubicin concentration-dependent manner	1.29	1.39	1.42	1.62	2.37
COc1cccc2c1C(=O)c1c(O)c3c(c(O)c1C2=O)C[C@@](O)(C(=O)CO)C[C@@H]3O[C@H]1C[C@H](N)[C@H](O)[C@H](C)O1 [Doxorubicin, doxorubicin]	–	–	–	–	–	–	–	–	–	0.97	1.08	1.14	1.29	1.38
COc1cccc2c1C(=O)c1c(O)c3c(c(O)c1C2=O)C[C@@](O)(C(=O)CO)C[C@@H]3O[C@H]1C[C@H](N)[C@H](O[C@@H]2CCCCO2)[C@H](C)O1 [Pirarubicin, pirarubicin]	–	–	–	–	–	–	–	–	–	1.03	1.08	1.53	1.50	–
COc1cccc2c1C(=O)c1c(O)c3c(c(O)c1C2=O)C[C@@](O)(C(C)=O)C[C@@H]3O[C@H]1C[C@H](N)[C@H](O)[C@H](C)O1 [Daunorubicin, daunorubicin]	–	–	–	–	–	–	–	–	–	1.09	1.12	1.82	2.07	–
CC(=O)[C@]1(O)Cc2c(O)c3c(c(O)c2[C@@H](O[C@H]2C[C@H](N)[C@H](O)[C@H](C)O2)C1)C(=O)c1ccccc1C3=O [Idarubicin, idarubicin]	–	–	–	–	–	–	–	–	–	1.02	1.21	–	–	–
